Assay results: patent publication EP4772505A1, “COMPOUND FOR DEGRADING ANDROGEN RECEPTOR AND MEDICAL USE THEREOF” (Ubix Therapeutics, Inc., priority 2023, dated 2025)

The compounds below were run against T1, Androgen Receptor (AR) (Homo sapiens, UniProt P10275) (assay: Pharmacodynamic efficacy: AR degradation in tumor of VCaP xenograft model after oral administration). Details: 10 mg/kg orally once daily for three days, tumor collected 6 hours after final administration.
T1 sequence (P10275 1-920): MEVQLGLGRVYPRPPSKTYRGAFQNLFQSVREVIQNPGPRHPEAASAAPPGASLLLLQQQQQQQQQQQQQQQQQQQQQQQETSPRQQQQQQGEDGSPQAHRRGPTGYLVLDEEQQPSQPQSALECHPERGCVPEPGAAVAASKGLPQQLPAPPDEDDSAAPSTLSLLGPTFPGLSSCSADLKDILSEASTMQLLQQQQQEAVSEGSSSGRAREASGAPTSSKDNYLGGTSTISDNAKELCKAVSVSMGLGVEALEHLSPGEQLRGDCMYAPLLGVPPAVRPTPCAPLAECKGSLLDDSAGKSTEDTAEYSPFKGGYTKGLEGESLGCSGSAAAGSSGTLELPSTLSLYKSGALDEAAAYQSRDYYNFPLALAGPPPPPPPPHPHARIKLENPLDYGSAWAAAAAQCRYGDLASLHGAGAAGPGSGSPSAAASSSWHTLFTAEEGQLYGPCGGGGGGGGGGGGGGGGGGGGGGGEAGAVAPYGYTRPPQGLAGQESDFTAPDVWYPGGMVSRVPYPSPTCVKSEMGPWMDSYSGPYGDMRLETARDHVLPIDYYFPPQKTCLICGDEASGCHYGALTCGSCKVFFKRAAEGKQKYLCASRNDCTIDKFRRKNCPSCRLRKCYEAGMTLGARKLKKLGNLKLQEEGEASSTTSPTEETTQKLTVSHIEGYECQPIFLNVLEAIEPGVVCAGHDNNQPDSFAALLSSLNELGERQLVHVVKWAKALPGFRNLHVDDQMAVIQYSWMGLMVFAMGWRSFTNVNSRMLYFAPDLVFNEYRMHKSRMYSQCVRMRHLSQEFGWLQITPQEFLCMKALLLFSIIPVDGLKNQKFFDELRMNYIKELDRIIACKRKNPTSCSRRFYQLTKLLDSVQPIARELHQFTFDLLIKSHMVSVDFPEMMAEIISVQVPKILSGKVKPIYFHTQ
Type: in vivo, CB17/SCID mice
Parameters: After sacrifice, tumor tissue was collected, washed in PBS, and stored at -80°C; from tissue; host or cells: VCaP xenograft tumour from CB17/SCID mice
Method: The protocol for the creation of a xenograft model and pharmacodynamic experiments using VCaP cells was as follows.
[Cell Culture] VCaP cells were resuspended at a density of 4 x 10^5/mL in a mixture of DMEM MEDIUM (Hyclone, SH30243.01), 10% FBS (Hyclone, SV30207.02), 1% Penicillin-streptomycin (Welgene, LS 202-02), and 1x Non-essential amino acid solution (100x) (Sigma, M7145-100mL). 50 mL of the cells were seeded into CELLBIND cell culture flasks (150 cm^2) (Corning, 3291) and cultured for 5 days.
[Xenotransplantation] The media was removed from the flask containing cultured VCaP cells and washed with 10 mL of PBS (Welgene, LB001-02). After removing the PBS, 2 mL of 1x 0.05% Trypsin-EDTA (Welgene, LS015-01) was added and treated in a cell incubator for 3 minutes. Then, 10 mL of media was added, pipetted, and placed in a 50 mL tube. The pellets were collected by centrifugation at 500 g for 5 minutes. The collected pellets were washed once more with 20 mL of PBS. The washed pellets were collected by centrifugation at 500 g for 5 minutes. The PBS was removed, and 500 µL of HBSS (Gibco, 14025092) was added and pipetted. After diluting 100-fold in HBSS and measuring the cell count, the concentration was calculated as 3 x 10^6/50 µL/mouse, diluted in HBSS, and stored in an ice bucket. An equal volume of matrigel (R&D system, 3432-005-01) was added to the stored cells, homogenized by pipetting, and then 100 µL per mouse was inoculated subcutaneously into the right flank of CB17/SCID mice.
[Measurement of tumor size and division into groups] After 2-3 weeks of inoculation with cancer cells, the transplanted cancer cells grew and were measured in size using a caliper. The measured tumor size was calculated as [long axis x short axis^2 x 0.5]. When the tumor size exceeded approximately […], the experimental animals were divided into groups based on the average tumor size and the concentration of the drug to be administered. The groups always included a group containing only the solvent (vehicle) without the drug.
[Drug Preparation and Administration] The drug was dissolved in a solvent and orally administered to each experimental animal in a volume of 200 µL (approximately 8 mL/kg). The solvent composition was 3% DMSO (Sigma, D8418), 10% Cremophor EL (Sigma, C5135), 20% PEG400 (Sigma, 06855-1KG), and 67% distilled water. The preparation method was as follows. Depending on the drug concentration (e.g., 10 or 30 mg/kg), each drug was weighed and dissolved in DMSO corresponding to 3% of the total solvent volume. […]
[Cancer Tissue Extraction] […] Changes in tumor size were measured during the prescribed administration period, and the mice were sacrificed 6 hours after the final administration. […]
For `N#Cc1ccc(N2CCC(C(=O)Nc3ccc(OC4CCN(CC5CCN(c6ccc(N[C@H]7CCC(=O)NC7=O)cc6F)CC5)CC4)cn3)CC2)cc1C(F)(F)F` [Example 2, (S)-1-(4-cyano-3-(trifluoromethyl)phenyl)-N-(5-((1-((1-(4-((2,6-dioxopiperidin-3-yl)amino)-2-fluorophenyl)piperidin-4-yl)methyl)piperidin-4-yl)oxy)pyridin-2-yl)piperidine-4-carboxamide], the “AR degradation in tumor (%)” value was 96%. `N#Cc1ccc(N2CCC(C(=O)Nc3ccc(OC4CCN(CC5CCN(c6ccc(N[C@H]7CCC(=O)NC7=O)cc6F)CC5)CC4)cn3)CC2)cc1Cl` [Example 9, (S)-1-(3-chloro-4-cyanophenyl)-N-(5-((1-((1-(4-((2,6-dioxopiperidin-3-yl)amino)-2-fluorophenyl)piperidin-4-yl)methyl)piperidin-4-yl)oxy)pyridin-2-yl)piperidine-4-carboxamide] was tested, and the “AR degradation in tumor (%)” value was 97%. `N#Cc1ccc(N2CCC(C(=O)Nc3ccc(OC4CCN(CC5CCN(c6ccc(N[C@@H]7CCC(=O)NC7=O)cc6F)CC5)CC4)cn3)CC2)cc1C(F)(F)F` [Example 3, (R)-1-(4-cyano-3-(trifluoromethyl)phenyl)-N-(5-((1-((1-(4-((2,6-dioxopiperidin-3-yl)amino)-2-fluorophenyl)piperidin-4-yl)methyl)piperidin-4-yl)oxy)pyridin-2-yl)piperidine-4-carboxamide] was tested, and the “AR degradation in tumor (%)” value was 89%. In the case of `N#Cc1ccc(N2CCC(C(=O)Nc3ccc(OC4CCN(CC5CCN(c6ccc(NC7CCC(=O)NC7=O)cc6F)CC5)CC4)cn3)CC2)cc1C(F)(F)F` (stereo not shown) [Example 1, 1-(4-cyano-3-(trifluoromethyl)phenyl)-N-(5-((1-((1-(4-((2,6-dioxopiperidin-3-yl)amino)-2-fluorophenyl)piperidin-4-yl)methyl)piperidin-4-yl)oxy)pyridin-2-yl)piperidine-4-carboxamide], the “AR degradation in tumor (%)” value was 86%.
